Source: the NIST ThermoML archive (doi:10.1021/je060271a)
Numbers after ± are expanded uncertainties.

Conditions: 303.14 K, Liquid, Vibrating tube method

CCCCCCC(=O)OCC(COC(=O)CCCCCC)(COC(=O)CCCCCC)COC(=O)CCCCCC [pentaerythritol tetraheptanoate]
Conditions	mass density [kg/m3]
8357.2 kPa	975.8 ± 1.2
8381 kPa	975.9 ± 1.2
8405.1 kPa	976 ± 1.2
8433.4 kPa	976 ± 1.2
8458.1 kPa	975.9 ± 1.2
8483.1 kPa	976.1 ± 1.2
8509.4 kPa	976 ± 1.2
8533.9 kPa	976.1 ± 1.2
8563.4 kPa	976 ± 1.2
8587.9 kPa	976.2 ± 1.2
8617.9 kPa	976 ± 1.2
8643.4 kPa	976.1 ± 1.2
8668.9 kPa	976.1 ± 1.2
8700 kPa	976.2 ± 1.2
8725.8 kPa	976.1 ± 1.2
8751.7 kPa	976.1 ± 1.2
8777.7 kPa	976.2 ± 1.2
8810 kPa	976.2 ± 1.2
8838.3 kPa	976.2 ± 1.2
8865.8 kPa	976.3 ± 1.2
8892.5 kPa	976.1 ± 1.2
8925.3 kPa	976.3 ± 1.2
8952.3 kPa	976.3 ± 1.2
8979 kPa	976.3 ± 1.2
9006.6 kPa	976.4 ± 1.2
9039.6 kPa	976.3 ± 1.2
9067.1 kPa	976.3 ± 1.2
9100.6 kPa	976.4 ± 1.2
9129 kPa	976.4 ± 1.2
9157.8 kPa	976.5 ± 1.2
9191.8 kPa	976.5 ± 1.2
9221.4 kPa	976.5 ± 1.2
9250.2 kPa	976.4 ± 1.2
9279.1 kPa	976.4 ± 1.2
9315 kPa	976.4 ± 1.2
9344.1 kPa	976.6 ± 1.2
9374.1 kPa	976.5 ± 1.2
9409.9 kPa	976.5 ± 1.2
9439.9 kPa	976.6 ± 1.2
9476.4 kPa	976.6 ± 1.2
9507.3 kPa	976.7 ± 1.2
9537.9 kPa	976.6 ± 1.2
9575 kPa	976.6 ± 1.2
9606.3 kPa	976.8 ± 1.2
9638.6 kPa	976.8 ± 1.2
9670.4 kPa	976.7 ± 1.2
9708.9 kPa	976.7 ± 1.2
9741.1 kPa	976.9 ± 1.2
9780.3 kPa	976.8 ± 1.2
9813.2 kPa	976.9 ± 1.2
9846 kPa	976.7 ± 1.2
9879 kPa	976.9 ± 1.2
9918.8 kPa	976.9 ± 1.2
9952.1 kPa	976.9 ± 1.2
9992 kPa	977 ± 1.2
10026 kPa	976.8 ± 1.2
10061 kPa	976.9 ± 1.2
10103 kPa	977.1 ± 1.2
10139 kPa	977 ± 1.2
10174 kPa	977 ± 1.2
10209 kPa	977.2 ± 1.2
10252 kPa	977.1 ± 1.2
10288 kPa	977 ± 1.2
10325 kPa	977.2 ± 1.2
10369 kPa	977.2 ± 1.2
10405 kPa	977.1 ± 1.2
10449 kPa	977.2 ± 1.2
10486 kPa	977.2 ± 1.2
10525 kPa	977.2 ± 1.2
10571 kPa	977.3 ± 1.2
10610 kPa	977.3 ± 1.2
10649 kPa	977.3 ± 1.2
10688 kPa	977.4 ± 1.2
10736 kPa	977.4 ± 1.2
10775 kPa	977.3 ± 1.2
10823 kPa	977.4 ± 1.2
10864 kPa	977.4 ± 1.2
10906 kPa	977.6 ± 1.2
10949 kPa	977.4 ± 1.2
11001 kPa	977.6 ± 1.2
11045 kPa	977.5 ± 1.2
11086 kPa	977.5 ± 1.2
11124 kPa	977.6 ± 1.2
11150 kPa	977.6 ± 1.2
11180 kPa	977.6 ± 1.2
11206 kPa	977.7 ± 1.2
11232 kPa	977.6 ± 1.2
11290 kPa	977.6 ± 1.2
11316 kPa	977.6 ± 1.2
11343 kPa	977.8 ± 1.2
11375 kPa	977.6 ± 1.2
11402 kPa	977.7 ± 1.2
11490 kPa	977.7 ± 1.2
11519 kPa	977.9 ± 1.2
11574 kPa	977.9 ± 1.2
11609 kPa	978 ± 1.2
11637 kPa	977.8 ± 1.2
11668 kPa	977.9 ± 1.2
11691 kPa	977.8 ± 1.2
11715 kPa	977.9 ± 1.2
11767 kPa	978.1 ± 1.2
11791 kPa	978 ± 1.2
11816 kPa	978 ± 1.2
11847 kPa	978 ± 1.2
11871 kPa	977.9 ± 1.2
11896 kPa	978.1 ± 1.2
11920 kPa	978.1 ± 1.2
11950 kPa	978 ± 1.2
11975 kPa	978.1 ± 1.2
12000 kPa	978.2 ± 1.2
12031 kPa	978.2 ± 1.2
12057 kPa	978 ± 1.2
12083 kPa	978.2 ± 1.2
12110 kPa	978.1 ± 1.2
12130 kPa	978.2 ± 1.2
12151 kPa	978.2 ± 1.2
12176 kPa	978.3 ± 1.2
12197 kPa	978.3 ± 1.2
12218 kPa	978.2 ± 1.2
12240 kPa	978.3 ± 1.2
12266 kPa	978.3 ± 1.2
12285 kPa	978.3 ± 1.2
12300 kPa	978.3 ± 1.2
12304 kPa	978.3 ± 1.2
12305 kPa	978.4 ± 1.2
12331 kPa	978.3 ± 1.2
12497 kPa	978.4 ± 1.2
12525 kPa	978.5 ± 1.2
12546 kPa	978.5 ± 1.2
12565 kPa	978.5 ± 1.2
12583 kPa	978.5 ± 1.2
12606 kPa	978.4 ± 1.2
12624 kPa	978.5 ± 1.2
12646 kPa	978.5 ± 1.2
12665 kPa	978.5 ± 1.2
12684 kPa	978.4 ± 1.2
12707 kPa	978.5 ± 1.2
12725 kPa	978.6 ± 1.2
12748 kPa	978.5 ± 1.2
12768 kPa	978.7 ± 1.2
12787 kPa	978.5 ± 1.2
12806 kPa	978.5 ± 1.2
12829 kPa	978.6 ± 1.2
12849 kPa	978.6 ± 1.2
12868 kPa	978.8 ± 1.2
12887 kPa	978.6 ± 1.2
12911 kPa	978.6 ± 1.2
12930 kPa	978.7 ± 1.2
12950 kPa	978.7 ± 1.2
12974 kPa	978.7 ± 1.2
12993 kPa	978.7 ± 1.2
13017 kPa	978.8 ± 1.2
13037 kPa	978.7 ± 1.2
13057 kPa	978.8 ± 1.2
13081 kPa	978.8 ± 1.2
13101 kPa	978.8 ± 1.2
13145 kPa	978.7 ± 1.2
13166 kPa	978.8 ± 1.2
13186 kPa	978.9 ± 1.2
13211 kPa	978.9 ± 1.2
13231 kPa	978.9 ± 1.2
13252 kPa	978.8 ± 1.2
13277 kPa	978.9 ± 1.2
13298 kPa	978.9 ± 1.2
13319 kPa	978.9 ± 1.2
13340 kPa	978.9 ± 1.2
13366 kPa	979 ± 1.2
13387 kPa	978.9 ± 1.2
13408 kPa	978.9 ± 1.2
13429 kPa	979.1 ± 1.2
13454 kPa	979 ± 1.2
13476 kPa	979 ± 1.2
13501 kPa	979 ± 1.2
13523 kPa	979.1 ± 1.2
13544 kPa	979.1 ± 1.2
13592 kPa	979 ± 1.2
13615 kPa	979 ± 1.2
13637 kPa	979.1 ± 1.2
13660 kPa	979.1 ± 1.2
13686 kPa	979.2 ± 1.2
13708 kPa	979.1 ± 1.2
13730 kPa	979.1 ± 1.2
13757 kPa	979.1 ± 1.2
13779 kPa	979.3 ± 1.2
13802 kPa	979.2 ± 1.2
13828 kPa	979.3 ± 1.2
13851 kPa	979.2 ± 1.2
13949 kPa	979.3 ± 1.2
13996 kPa	979.4 ± 1.2
14023 kPa	979.3 ± 1.2
14047 kPa	979.3 ± 1.2
14070 kPa	979.5 ± 1.2
14098 kPa	979.3 ± 1.2
14121 kPa	979.4 ± 1.2
14145 kPa	979.5 ± 1.2
14174 kPa	979.4 ± 1.2
14198 kPa	979.4 ± 1.2
14247 kPa	979.4 ± 1.2
14276 kPa	979.4 ± 1.2
14300 kPa	979.4 ± 1.2
14353 kPa	979.5 ± 1.2
14378 kPa	979.5 ± 1.2
14402 kPa	979.5 ± 1.2
14432 kPa	979.5 ± 1.2
14700 kPa	979.8 ± 1.2
14725 kPa	979.9 ± 1.2
14756 kPa	979.8 ± 1.2
14782 kPa	979.7 ± 1.2
14808 kPa	979.7 ± 1.2
15038 kPa	979.8 ± 1.2
15065 kPa	980.1 ± 1.2
15092 kPa	980 ± 1.2
15119 kPa	979.9 ± 1.2
15152 kPa	980.1 ± 1.2
15207 kPa	980 ± 1.2
15241 kPa	980 ± 1.2
15297 kPa	980 ± 1.2
15386 kPa	980.1 ± 1.2
15420 kPa	980.1 ± 1.2
15448 kPa	980.2 ± 1.2
15477 kPa	980.2 ± 1.2
15539 kPa	980.1 ± 1.2
15568 kPa	980.2 ± 1.2
15602 kPa	980.2 ± 1.2
